Data as given in patent publication US20070107143A1, “Oxidative treatment of hair with reduced hair damage” (priority 2001, published 2007).
Read-outs that look alike come from different tables or passages of the source.

What was measured:
[1] = Hydrogen Peroxide Decomposition Ratio Measurement Protocol; details: for Peroxide % at t = 0 / Peroxide % at t = 30mn / Hydrogen Peroxide Decomposition Ratio (% Loss): pH 10, 300 ppm copper sulphate, 0.026M chelant; for Hydrogen Peroxide Decomposition Ratio (% Loss): after 30 minutes
Protocol: The Hydrogen Peroxide Decomposition Ratio Measurement Protocol is defined as follows: 6.0% by weight of concentrated ammonium hydroxide (30% active ammonia) is added to deionised water and the pH of the solution is adjusted to 10 using acetic acid. 300 ppm of copper sulphate and 0.026M of the chelant to be tested are added to said composition. […] The initial level of hydrogen peroxide is measured at this moment (t=0); the final level of hydrogen peroxide is measured after 30 minutes. The value of the ratio of the hydrogen peroxide concentration at t=0 and at t=30 mn is the Hydrogen Peroxide Decomposition Ratio (% Loss).
The initial and final level of hydrogen peroxide can be measured according to any standard technique. The following is a well-known and standard technique that was used by the inventors: 0.2-0.3 g (the exact quantity being precisely measured) of the solution to be titrated is added to 40 ml of 10% acetic acid. […] The level of hydrogen peroxide (% Peroxide) is then calculated from the following equation: [formula]
Three replicate runs are made at both t=0 and t=30 mn and then averaged to calculate the Hydrogen Peroxide Decomposition Ratio (% Loss).

[2] = FT-IR Damage Assessing Protocol after 5-Cycle Oxidative Hair Treatment Protocol With 2 Intermediate Washes; parameters: species or system human; details: for Damage after 5 cycles (cysteic acid units): 2 intermediate washes, pH 10
Protocol: For each chelant tested, seven switches of virgin dark hair were used. […] The switches usually weighed about 1.5 g each and are treated stepwise according to the following protocol.
A bleaching composition comprising the chelant to be tested is prepared by mixing in equal weight amounts a hydrogen peroxide emulsion base and an alkaline (high pH) emulsion base.
2 g Of the bleaching composition per g of hair to be treated was applied on the hair switches and massaged in thoroughly. The hair switches were then wrapped in a plastic film and put in an oven at 30° C. After 30 mn, they were removed from the oven and from the wrapping film and rinsed for 1 mn in water. 0.1 g of shampoo per g. of hair was then added and milked for 30 s at a rate of at least 150 strokes a minute before rinsing for 30 s. […] The concentration of copper (Cu^2+) ions was kept at about 1 ppm (+/−10%), the exact concentrations being measured by a standard analytic method. The rinsing water flow was adjusted to 6 liters per minute). The same shampooing and rinsing process was repeated another time (this is the “Oxidative Hair Treatment Protocol With 2 Intermediate Washes” referred to in the claims) or 9 additional times (this is the “Oxidative Hair Treatment Protocol With 10 Intermediate Washes” referred to in the claims) depending on the Damage Assessment Protocol used. The excess water was then squeezed out of the hair, and the hair dried with a fan. Any standard shampoo can be used in this protocol as long as it is free from transition metal ions such as copper ion and that the level chelants is less than 0.1% by weight of the shampoo. Prell® shampoo was using during these tests.
This Oxidative Hair Treatment Protocol can be repeated several times. […] This process is described as a 5-Cycle Oxidative Hair Treatment Protocol With 2 or 10 Intermediate Washes.
In particular, these authors have shown that the method is suitable for quantifying the amount of cysteic acid that is produced from the oxidation of cystine. In general, the oxidation of cystine is thought to be a suitable marker by which to monitor the overall oxidation of the keratinous part of the fiber.
They have shown that this technique is more suitable than using the FT-IR method in simple transmission or microscope modes. […] The detailed description of the method used for testing the different damage inhibitors follows thereafter:
A Perkin Elmer Spectrum® 1 Fourier Transform Infrared (FTIR) system equipped with a diamond Attenuated Total Internal Reflection (ATR) cell was used to measure the cysteic acid concentration in human hair. In this method, hair switches of various sizes and colours can be used. The switches were platted (˜1 plait per cm) in order to minimize variations in surface area of contact between readings. The Oxidative Hair Treatment Protocol described above was repeated for 5 cycles to mimic the behavior of hair after repeated bleaching cycles. Following this treatment, four readings per switch were taken (˜⅓ and ⅔ s down the switch on both sides), and an average calculated. Backgrounds were collected every 4 readings, and an ATR cell pressure of 1N/m was employed. The cell was cleaned with ethanol between each reading, and a contamination check performed using the monitor ratio mode of the instrument. […] The original spectra were initially converted to absorbance, before being normalized to the 1450 cm^−1 band (the characteristic and invariant protein CH2 stretch). This normalized absorbance was then twice derivatised using a 13 point averaging. The value of the 1450 cm^−1 normalized 2nd derivative of the absorbance at 1040 cm^−1 was taken as the relative concentration of cysteic acid. This figure was multiplied by −1×10^−4 to recast it into suitable units. […] The following instrumental conditions were employed:
The weight percentages for each chelant are indicated in the first line of the table below.

[3] = not given; remark: listed apart in the source
[4] = Goniophotometer Damage Assessing Protocol after Oxidative Hair Treatment Protocol With 10 Intermediate Washes; parameters: species or system human
Protocol: A bleaching composition comprising the chelant to be tested is prepared by mixing in equal weight amounts a hydrogen peroxide emulsion base and an alkaline (high pH) emulsion base. 2 g Of the bleaching composition per g of hair to be treated was applied on the hair switches and massaged in thoroughly. The hair switches were then wrapped in a plastic film and put in an oven at 30° C. […] The rinsing water flow was adjusted to 6 liters per minute). […] The excess water was then squeezed out of the hair, and the hair dried with a fan. […] Prell® shampoo was using during these tests. This Oxidative Hair Treatment Protocol can be repeated several times.

[5] = 25deg, 0.1M ionic strength; fully deprotonated chelants; cited from earlier work
[6] = 25deg, 0.1M ionic strength; fully deprotonated chelants; cited from earlier work; remark: listed apart in the source
[7] = tetra-protonated chelants; cited from earlier work
[8] = log Conditional Stability Constant at pH 10 with Cu; details: for Ratio Cu/Ca of log Conditional Stability Constants: log KCuL / log KCaL
[9] = log Conditional Stability Constant at pH 10 with Ca
[10] = 3.8% weight on-head, tetra-sodium salt, 5 cycles
[11] = 1.9% weight on-head, tri-sodium salt, 5 cycles
[12] = 2.0% weight on-head (tetra-sodium EDTA, di-sodium HEDP), 5 cycles

| Structure (SMILES) | Peroxide % at t = 0 [1] | Peroxide % at t = 30mn [1] | Hydrogen Peroxide Decomposition Ratio (% Loss) [1] | log K (stability constant, 1:1 complex) Cu [5] | log K (stability constant, 1:1 complex) Ca [6] | log protonation constant H2L^2− [7] | log protonation constant H3L^− [7] | log protonation constant H4L [7] | log protonation constant HL^3− [7] | log Conditional Stability Constant (pH 10) Cu [8] | Ratio Cu/Ca of log Conditional Stability Constants [8] | log Conditional Stability Constant (pH 10) Ca [9] | Damage after 5 cycles (cysteic acid units) [2, 12] | further results |
| --- | --- | --- | --- | --- | --- | --- | --- | --- | --- | --- | --- | --- | --- | --- |
| O=P(O)(O)CN(CCN(CP(=O)(O)O)CP(=O)(O)O)CCN(CP(=O)(O)O)CP(=O)(O)O [DTPMP, diethylene-triamine-penta-(methylenephosphonic acid)] | 3.078% | 2.964% |  |  |  |  |  |  |  |  |  |  |  | Damage benefit vs EDTA 2% [2, 10]: +14%; Damage after 5 cycles (cysteic acid units) [2, 10]: 142 cysteic acid units; log Conditional Stability Constant (pH 10) Cu: 15.14; log Conditional Stability Constant (pH 10) Ca [3]: 4.74 |
| O=C(O)CC(NCCNC(CC(=O)O)C(=O)O)C(=O)O (stereo not drawn) [EDDS, ethylenediamine-N,N′-disuccinic acid] | 3.150% | 3.104% | 1.5% | 18.35 | 4.58 | 6.84 | 3.86 | 2.95 | 10.01 | 16.04 | 3.76 | 4.27 |  | Hair damage compared with any other chelant (in words) ([2]; 1.9% by weight, 5 cycles): much less damage; Damage benefit vs EDTA 2% [2, 11]: +33%; Damage after 5 cycles (cysteic acid units) [2, 11]: 110 cysteic acid units; Damage benefit (in words) ([2]; concentrations much lower than 1.9% by weight on head): excellent benefits; Normalized shine ratio (hair treated after 9 cycles/ virgin hair) ([4]; 0.95 weight %, tri-sodium salt): 1.03 |
| O=C(O)CN(CCN(CC(=O)O)CC(=O)O)CC(=O)O [EDTA, ethylenediaminetetraacetic acid] | 3.576% | 3.573% |  | 18.78 | 10.65 |  |  |  |  | 16.37 |  |  | 165 cysteic acid units | Capacity at inhibiting the red-ox chemistry of copper (in words) ([1]; lab condition, de-ionized water): very good capacity; Damage prevention properties (in words) ([2]; real conditions of use, high copper and Ca^2+ concentrations): very poor damage prevention properties; Damage benefit (in words) ([2]; unless utilized at levels much higher than 0.1%): very little benefits |
| CC(O)(P(=O)(O)O)P(=O)(O)O [HEDP, 1-hydroxyethane-1,1-diphosphonic acid] | 4.126% | 2.792% | 32.3% | 11.84 | 6.0 | 6.88 | 2.53 | 1.8 | 10.8 | 8.98 | 1.75 | 5.13 | 163 cysteic acid units | Damage benefit vs EDTA 2% ([2]; 2.0% weight on-head, di-sodium salt, 5 cycles): +1%; Normalized shine ratio (hair treated after 9 cycles/ virgin hair) ([4]; 1.0 weight % (tetra-sodium EDTA, di-sodium HEDP)): 0.730 |
| O=C(O)CC(NCC(O)CNC(CC(=O)O)C(=O)O)C(=O)O (stereo not drawn) [HPPDS, 2-hydroxypropylenediamine-N,N′-disuccinic acid] |  |  |  |  |  |  |  |  |  |  |  |  |  | Normalized shine ratio (hair treated after 9 cycles/ virgin hair) ([4]; 0.97 weight %, tetra-sodium salt): 1.00 |
| CC(C(=O)O)N(CC(=O)O)CC(=O)O (stereo not drawn) [MGDA, methylglycinediacetic acid] | 3.498% | 3.104% | 11.3% |  |  |  |  |  |  |  |  |  |  |  |
